# Measurements as given in patent publication US20230041563A1, “N-(1,3,4-OXADIAZOL-2-YL)ARYLCARBOXAMIDES OR SALTS THEREOF, PREPARATION METHODS, HERBICIDAL COMPOSITIONS AND USES THEREOF” (priority 2018, published 2023).
# How the values were obtained:
# Test in all cases: Weeding effect in post-emergence stage (greenhouse pot spray)
# Assay type in all cases: in vivo
# Setaria viridis = tested on: Setaria viridis
# Source text: (§1) The activity level criteria for plant damage (i.e., growth control rate) are as follows:
# (§2) The above growth control rates are fresh weight control rates.
# (§3) Experiment on weeding effect in post-emergence stage: monocotyledonous and dicotyledonous weed seeds (Descurainia sophia, Capsella bursa-pastoris, Abutilon theophrasti, Galium aparine, Stellaria media, Lithospermum arvense, rorippa indica, Alopecurus aequalis, Beckmannia syzigachne, Sclerochloa dura, Phleum paniculatum, Bromus japonicus, Aegilops tauschii, Phalaris arundinacea, Amaranthus retroflexus, Chenopodiaceae, Commelina communis, Sonchus arvensis, convolvulus arvensis, Cirsium setosum, Solanum nigrum, Acalypha australis, Digitaria sanguinalis, Echinochloa crusgalli, Setaria viridis, Setaria glauca, Leptochloa chinensis, Monochoria vaginalis, Sagittaria trifolia, Scirpus juncoides, Cyperus rotundus, Cyperus iria, Cyperus difformis, Fimbristylis, Portulaca oleracea, Xanthium sibiricum, Pharbitis nil) and major crop seeds (wheat, corn, rice, soybean, cotton, oilseed rape, millet, sorghum, potato, sesame, ricinus) were placed in plastic pots filled with soil, then covered with 0.5-2 cm of soil, allowed to grow in a good greenhouse environment. After 2 weeks of sowing, the test plants were treated in the 2 to 3 leaf stage. The tested compounds of the present invention were respectively dissolved in acetone, then added with Tween 80 and 1.5 liter/ha of emulsifiable concentrate of methyl oleate as synergist, diluted with a certain amount of water to obtain a solution with a certain concentration, and sprayed with a spray tower onto the plants. After the application, the plants were cultured for 3 weeks in the greenhouse, and then the experimental results of the weeding were counted. […]
# Digitaria sanguinalis = tested on: Digitaria sanguinalis
# Source text: as §1, §2, §3
# Echinochloa crusgalli = tested on: Echinochloa crusgalli
# Source text: as §1, §2, §3
smiles,measurement,setting,value
C/C=C/C[S@@+]([O-])c1c(C(F)(F)F)ccc(C(=O)Nc2nnc(C)o2)c1F [1-398 (R-configuration)],Setaria viridis (activity level),"Setaria viridis; Table 3, dose 250 g a.i./ha",5 (Level 5: growth control rate is above 85%)
same,Digitaria sanguinahs (activity level),"Digitaria sanguinalis; Table 3, dose 250 g a.i./ha",5 (Level 5: growth control rate is above 85%)
same,Echinochloa crusgali (activity level),"Echinochloa crusgalli; Table 3, dose 250 g a.i./ha",5 (Level 5: growth control rate is above 85%)
CC(C)[S@+]([O-])c1c(C(F)(F)F)ccc(C(=O)Nc2nnco2)c1F [3-11 (R-configuration)],Setaria viridis (activity level),"Setaria viridis; Table 3, dose 125 g a.i./ha",5 (Level 5: growth control rate is above 85%)
same,Digitaria sanguinahs (activity level),"Digitaria sanguinalis; Table 3, dose 125 g a.i./ha",5 (Level 5: growth control rate is above 85%)
same,Echinochloa crusgali (activity level),"Echinochloa crusgalli; Table 3, dose 125 g a.i./ha",5 (Level 5: growth control rate is above 85%)
CC(C)=NOCC[S@@+]([O-])c1c(C(F)(F)F)ccc(C(=O)Nc2nnc(C)o2)c1F [1-525 (R-configuration)],Setaria viridis (activity level),"Setaria viridis; Table 3, dose 500 g a.i./ha",5 (Level 5: growth control rate is above 85%)
same,Digitaria sanguinahs (activity level),"Digitaria sanguinalis; Table 3, dose 500 g a.i./ha",5 (Level 5: growth control rate is above 85%)
same,Echinochloa crusgali (activity level),"Echinochloa crusgalli; Table 3, dose 500 g a.i./ha",5 (Level 5: growth control rate is above 85%)
C#CCC[S@@+]([O-])c1c(C(F)(F)F)ccc(C(=O)Nc2nnc(C)o2)c1F [1-401 (R-configuration)],Setaria viridis (activity level),"Setaria viridis; Table 3, dose 500 g a.i./ha",5 (Level 5: growth control rate is above 85%)
same,Digitaria sanguinahs (activity level),"Digitaria sanguinalis; Table 3, dose 500 g a.i./ha",5 (Level 5: growth control rate is above 85%)
same,Echinochloa crusgali (activity level),"Echinochloa crusgalli; Table 3, dose 500 g a.i./ha",5 (Level 5: growth control rate is above 85%)
C=CCC[S@+]([O-])c1c(C(F)(F)F)ccc(C(=O)Nc2nnc(C)o2)c1F [1-397 (R-configuration)],Setaria viridis (activity level),"Setaria viridis; Table 3, dose 125 g a.i./ha",5 (Level 5: growth control rate is above 85%)
same,Digitaria sanguinahs (activity level),"Digitaria sanguinalis; Table 3, dose 125 g a.i./ha",5 (Level 5: growth control rate is above 85%)
same,Echinochloa crusgali (activity level),"Echinochloa crusgalli; Table 3, dose 125 g a.i./ha",5 (Level 5: growth control rate is above 85%)
CC(=O)C[S@@+]([O-])c1c(C(F)(F)F)ccc(C(=O)Nc2nnc(C)o2)c1F [1-552 (R-configuration)],Setaria viridis (activity level),"Setaria viridis; Table 3, dose 125 g a.i./ha",5 (Level 5: growth control rate is above 85%)
same,Digitaria sanguinahs (activity level),"Digitaria sanguinalis; Table 3, dose 125 g a.i./ha",5 (Level 5: growth control rate is above 85%)
same,Echinochloa crusgali (activity level),"Echinochloa crusgalli; Table 3, dose 125 g a.i./ha",5 (Level 5: growth control rate is above 85%)
Cc1nnc(NC(=O)c2ccc(C(F)(F)F)c([S@@+]([O-])CCC(F)(C(F)(F)F)C(F)(F)F)c2F)o1 [1-413 (R-configuration)],Setaria viridis (activity level),"Setaria viridis; Table 3, dose 500 g a.i./ha",5 (Level 5: growth control rate is above 85%)
same,Digitaria sanguinahs (activity level),"Digitaria sanguinalis; Table 3, dose 500 g a.i./ha",5 (Level 5: growth control rate is above 85%)
same,Echinochloa crusgali (activity level),"Echinochloa crusgalli; Table 3, dose 500 g a.i./ha",5 (Level 5: growth control rate is above 85%)
Cc1nnc(NC(=O)c2ccc(C(F)(F)F)c([S@@+]([O-])CC(C)F)c2F)o1 (stereo partly drawn) [1-404 (R-configuration)],Setaria viridis (activity level),"Setaria viridis; Table 3, dose 60 g a.i./ha",5 (Level 5: growth control rate is above 85%)
same,Digitaria sanguinahs (activity level),"Digitaria sanguinalis; Table 3, dose 60 g a.i./ha",5 (Level 5: growth control rate is above 85%)
same,Echinochloa crusgali (activity level),"Echinochloa crusgalli; Table 3, dose 60 g a.i./ha",5 (Level 5: growth control rate is above 85%)
Cc1nnc(NC(=O)c2ccc(C(F)(F)F)c([S@@+]([O-])CC(C)O)c2F)o1 (stereo partly drawn) [1-431 (R-configuration)],Setaria viridis (activity level),"Setaria viridis; Table 3, dose 500 g a.i./ha",5 (Level 5: growth control rate is above 85%)
same,Digitaria sanguinahs (activity level),"Digitaria sanguinalis; Table 3, dose 500 g a.i./ha",5 (Level 5: growth control rate is above 85%)
same,Echinochloa crusgali (activity level),"Echinochloa crusgalli; Table 3, dose 500 g a.i./ha",5 (Level 5: growth control rate is above 85%)
CCOCC[S@+]([O-])c1c(C(F)(F)F)ccc(C(=O)Nc2nnc(C)o2)c1F [1-446 (R-configuration)],Setaria viridis (activity level),"Setaria viridis; Table 3, dose 500 g a.i./ha",5 (Level 5: growth control rate is above 85%)
same,Digitaria sanguinahs (activity level),"Digitaria sanguinalis; Table 3, dose 500 g a.i./ha",5 (Level 5: growth control rate is above 85%)
same,Echinochloa crusgali (activity level),"Echinochloa crusgalli; Table 3, dose 500 g a.i./ha",5 (Level 5: growth control rate is above 85%)
CC[S@+]([O-])c1c(C(F)(F)F)ccc(C(=O)Nc2nnco2)c1F [3-5 (R-configuration)],Setaria viridis (activity level),"Setaria viridis; Table 3, dose 120 g a.i./ha",5 (Level 5: growth control rate is above 85%)
same,Digitaria sanguinahs (activity level),"Digitaria sanguinalis; Table 3, dose 120 g a.i./ha",5 (Level 5: growth control rate is above 85%)
same,Echinochloa crusgali (activity level),"Echinochloa crusgalli; Table 3, dose 120 g a.i./ha",5 (Level 5: growth control rate is above 85%)
